{
  "source": "patent US5189033A",
  "about": "“Tricyclic heterocycles” (Imperial Chemical Industries PLC, priority 1991, dated 1993)",
  "key": {"[1]": {"system": "writhing induced by the intraperitoneal administration of phenylbenzoquinone", "experiment": "Test (c): in-vivo assay in mice, writhing induced by phenylbenzoquinone (PBQ)", "conditions": "at 100 mg/kg, oral dosing", "text": "(c) an in-vivo assay in mice which assesses the inhibitory properties of a test compound against writhing induced by the intraperitoneal administration of phenylbenzoquinone (hereinafter PBQ) using the procedure disclosed in European Patent Application No. 0218077."}, "[2]": {"molecular_target": "T1, EP1 receptors (PGE2-induced contractions of the ileum) (Cavia porcellus, UniProt A0A286XHJ6)", "T1 construct": "ileum was immersed in oxygenated Krebs solution containing indomethacin; from tissue; host or cells: guinea pig ileum", "T1 sequence (A0A286XHJ6 1-405)": "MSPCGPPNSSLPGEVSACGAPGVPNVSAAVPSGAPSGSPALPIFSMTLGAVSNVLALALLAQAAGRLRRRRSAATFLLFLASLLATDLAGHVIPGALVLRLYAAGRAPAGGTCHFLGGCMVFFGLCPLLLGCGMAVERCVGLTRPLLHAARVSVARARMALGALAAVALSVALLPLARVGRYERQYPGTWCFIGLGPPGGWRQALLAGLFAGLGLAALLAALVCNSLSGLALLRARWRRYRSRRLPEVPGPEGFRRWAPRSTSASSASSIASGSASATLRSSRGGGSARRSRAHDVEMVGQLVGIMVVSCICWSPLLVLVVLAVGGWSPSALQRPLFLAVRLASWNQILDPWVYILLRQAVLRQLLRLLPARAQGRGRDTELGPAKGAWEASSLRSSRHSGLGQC", "experiment": "Test (a): in-vitro guinea pig ileum assay, inhibition of PGE2-induced contractions", "conditions": "PGE2-induced contraction of guinea pig ileum, read-out: pA2 value (converted)", "method": "(a) an in-vitro guinea pig ileum assay which assesses the inhibitory properties of a test compound against PGE2 -induced contractions of the ileum; ileum was immersed in oxygenated Krebs solution containing indomethacin (4 μg/ml) and atropine (1 μM) and which was maintained at 37° C.; the ileum was subject to a resting tension of 1 g; a control dose response curve for PGE2 -induced contraction of the ileum was obtained; test compound (dissolved in dimethylsulphoxide) was added to the Krebs solution and a dose response curve for the PGE2 -induced contraction of the ileum in the presence of the test compound was obtained; the pA2 value for the test compound was calculated;\nProstanoid receptors and in particular receptors for PGE2 have been tentatively characterised by Kennedy et al. (Advances in Prostaglandin, Thromboxane and Leukotriene Research, 1983, 11, 327)."}, "PGE2 receptors": {"system": "PGE2 receptors", "conditions": "cited from earlier work"}, "[3]": {"system": "writhing induced by the concomitant administration of PGE2 and bradykinin", "experiment": "Test (b): in-vivo assay in mice, writhing induced by PGE2 and bradykinin", "conditions": "Mus musculus, oral dosing, read-out: ED50 for antagonism of the writhing response"}},
  "note": "Where two headings read alike, the source gives them in different places.",
  "data": [
    {"smiles": "O=C(O)c1cccc(CN2Cc3ccccc3Oc3ccc(Cl)cc32)c1", "note": "[Example 1, 3-(8-chloro-10,11-dihydrodibenzo[b,f]-[1,4]oxazepin-10-ylmethyl)benzoic acid]", "values": [
      {"measurement": "activity in Test (c)", "setting": "[1]", "value": "significant activity"},
      {"measurement": "Kb", "setting": "[2]", "value": 39.8, "unit": "nM"}
    ]},
    {"smiles": "CC(=O)NNC(=O)N1Cc2ccccc2Oc2ccc(Cl)cc21", "note": "[SC-19220]", "values": [
      {"measurement": "block of the effect of PGE2", "setting": "PGE2 receptors; cat trachea or chick ileum", "value": "not on other tissues"},
      {"measurement": "block of the effect of PGE2", "setting": "PGE2 receptors; guinea pig ileum or dog fundus", "value": "blocks the effect of PGE2"}
    ]},
    {"smiles": "O=C(O)c1ccc(CN2Cc3ccccc3Oc3ccc(Cl)cc32)cc1", "note": "[Example 2, 4-(8-chloro-10,11-dihydrodibenzo[b,f][1,4]oxazepin-10-ylmethyl)-benzoic acid]", "values": [
      {"measurement": "Kb", "setting": "[2]", "value": 100, "unit": "nM"},
      {"measurement": "ED50", "setting": "[3]", "value": 19, "unit": "mg/kg"}
    ]}
  ]
}
